Laboratory results reported in ChEMBL document CHEMBL2375248, “C1 and N5 derivatives of cerpegin: synthesis of a new series based on structure-activity relationships to optimize their inhibitory effect on 20S proteasome” (Bioorg Med Chem Lett, 2013).
Active and inactive are the calls of the source. The rule behind the calls is not given here.

Legend:
[1] = Inhibition of chymotrypsin-like activity of 20S proteasome in rabbit erythrocytes using Suc-LLVY-AMC as substrate preincubated for 15 mins measured after 45 mins by fluorescence assay; type: cell-based, Oryctolagus cuniculus
[2] = target: Cathepsin B (Homo sapiens) (UniProt P07858); test: Inhibition of cathepsin B in human hepatocytes using Z-RR-AMC as substrate by fluorescence assay; type: cell-based; conditions: Hepatocyte
[3] = Inhibition of trypsin-like activity of 20S proteasome in rabbit erythrocytes using Boc-LRR-AMC as substrate preincubated for 15 mins measured after 45 mins by fluorescence assay; type: cell-based, Oryctolagus cuniculus
[4] = Inhibition of caspase-like activity of 20S proteasome in rabbit erythrocytes using Z-LLE-betaNA as substrate preincubated for 15 mins measured after 45 mins by fluorescence assay; type: cell-based, Oryctolagus cuniculus
Oryctolagus cuniculus [5] = organism: Oryctolagus cuniculus; test: Inhibition of caspase-like activity of 20S proteasome in rabbit erythrocytes using Z-LLE-betaNA as substrate at 100 uM preincubated for 15 mins measured after 45 mins by fluorescence assay relative to control
Oryctolagus cuniculus [6] = organism: Oryctolagus cuniculus; test: Inhibition of chymotrypsin-like activity of 20S proteasome in rabbit erythrocytes using Suc-LLVY-AMC as substrate at 100 uM preincubated for 15 mins measured after 45 mins by fluorescence assay relative to control; type: cell-based
[7] = target: T1, Calpain-1 catalytic subunit (Homo sapiens, UniProt P07384); test: Inhibition of calpain 1 in human erythrocytes using Suc-LLVY-AMC as substrate by fluorescence assay; type: cell-based
T1 sequence (P07384 whole entry): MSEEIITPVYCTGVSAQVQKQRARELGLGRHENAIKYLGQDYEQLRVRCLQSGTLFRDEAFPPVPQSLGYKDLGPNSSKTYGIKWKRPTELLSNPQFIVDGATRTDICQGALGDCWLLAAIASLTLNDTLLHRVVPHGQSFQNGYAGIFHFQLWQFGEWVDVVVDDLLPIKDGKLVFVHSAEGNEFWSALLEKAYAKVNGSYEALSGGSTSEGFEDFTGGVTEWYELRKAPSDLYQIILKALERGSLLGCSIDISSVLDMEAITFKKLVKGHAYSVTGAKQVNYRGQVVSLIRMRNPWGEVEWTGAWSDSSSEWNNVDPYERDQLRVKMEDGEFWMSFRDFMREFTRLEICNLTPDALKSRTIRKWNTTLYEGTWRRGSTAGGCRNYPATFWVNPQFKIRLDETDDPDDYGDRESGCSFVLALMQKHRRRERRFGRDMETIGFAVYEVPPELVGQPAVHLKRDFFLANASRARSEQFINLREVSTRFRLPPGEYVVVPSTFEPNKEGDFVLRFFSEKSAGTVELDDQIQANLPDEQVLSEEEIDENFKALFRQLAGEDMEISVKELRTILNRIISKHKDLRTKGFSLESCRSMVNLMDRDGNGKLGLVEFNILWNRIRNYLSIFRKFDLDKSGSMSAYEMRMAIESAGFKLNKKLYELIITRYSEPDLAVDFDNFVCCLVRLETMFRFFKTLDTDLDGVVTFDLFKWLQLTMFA

| IC50 [1] | inhibition [2] | IC50 [3] | IC50 ([4]; read-out: IC50) [µM] | inhibition (Oryctolagus cuniculus [5]) [%] | IC50 [4] | IC50 [7] [µM] | SMILES | inhibition (Oryctolagus cuniculus [6]) [%] | IC50 ([1]; read-out: IC50) [µM] | IC50 ([3]; read-out: IC50) [µM] |
| --- | --- | --- | --- | --- | --- | --- | --- | --- | --- | --- |
| Not Active | inactive | Not Active | 46.9 | – | – | – | O=C1OC2(CCCCC2)c2ccn(CCCN3CCOCC3)c(=O)c21 | – | – | – |
| Not Active | inactive | Not Active | 6.7 | – | – | – | CCN(CC)CC(O)Cn1ccc2c(c1=O)C(=O)OC21CCCCC1 (configuration not stated) | – | – | – |
| Not Active | inactive | Not Active | 5.7 | – | – | – | CC(=O)NS(=O)(=O)c1ccc(-n2ccc3c(c2=O)C(=O)OC3(C)C)cc1 | – | – | – |
| Not Active | inactive | Not Active | 12.7 | – | – | – | CC(C)CC1(C)OC(=O)c2c1ccn(CCc1ccc(Cl)cc1)c2=O (racemic) | – | – | – |
| Not Active | inactive | Not Active | 4.9 | – | – | – | CCC1(C)OC(=O)c2c1ccn(-c1ccc(S(N)(=O)=O)cc1)c2=O (racemic) | – | – | – |
| Not Active | inactive | Not Active | 4.8 | – | – | – | CC(C)CC1(C)OC(=O)c2c1ccn(CC(O)c1ccccc1)c2=O (configuration not stated) | – | – | – |
| Not Active | inactive | Not Active | 4.4 | – | – | – | CCN(CC)CC(O)Cn1ccc2c(c1=O)C(=O)OC2(C)c1ccccc1 (mixture of isomers) | – | – | – |
| Not Active | inactive | Not Active | 5.9 | – | – | – | CC1(C)OC(=O)c2c1ccn(-c1ccc(S(=O)(=O)NC(=N)N)cc1)c2=O | – | – | – |
| Not Active | inactive | Not Active | – | 31.8 | – | – | CC(C)CC1(C)OC(=O)c2c1ccn(CCCN1CCOCC1)c2=O (racemic) | – | – | – |
| Not Active | inactive | Not Active | 11.9 | – | – | – | O=C1OC2(CCCCC2)c2ccn(CC(O)c3ccccc3)c(=O)c21 (configuration not stated) | – | – | – |
| Not Active | inactive | Not Active | – | – | Not Active | – | Cc1cc(-n2ccc3c(c2=O)C(=O)OC32CCCCC2)n(-c2ccccc2)n1 | – | – | – |
| Not Active | inactive | Not Active | – | 22 | – | – | CC1(C)OC(=O)c2c1ccn(-c1ccc(S(=O)(=O)Nc3nccs3)cc1)c2=O | – | – | – |
| Not Active | inactive | Not Active | 8.1 | – | – | – | O=C1OC2(CCCCC2)c2ccn(CC(O)CO)c(=O)c21 (configuration not stated) | – | – | – |
| Not Active | inactive | Not Active | 36 | – | – | – | Cn1ccc2c(c1=O)C(=O)OC2(C)c1ccccc1 (racemic) | – | – | – |
| Not Active | inactive | Not Active | 4.5 | – | – | – | CC1(C)OC(=O)c2c1ccn(-c1ccc(S(=O)(=O)NC(=O)c3ccccc3)cc1)c2=O | – | – | – |
| Not Active | inactive | Not Active | – | 51 | – | – | CC1(C)OC(=O)c2c1ccn(-c1ccc(S(=O)(=O)Nc3ncccn3)cc1)c2=O | – | – | – |

| IC50 [1] | inhibition [2] | IC50 [3] | IC50 ([4]; read-out: IC50) [µM] | inhibition (Oryctolagus cuniculus [5]) [%] | IC50 [4] | IC50 [7] [µM] | SMILES | inhibition (Oryctolagus cuniculus [6]) [%] | IC50 ([1]; read-out: IC50) [µM] | IC50 ([3]; read-out: IC50) [µM] |
| --- | --- | --- | --- | --- | --- | --- | --- | --- | --- | --- |
| Not Active | inactive | Not Active | – | 30.7 | – | – | O=C1OC2(CCCCC2)c2ccn(CC(O)CN3CCOCC3)c(=O)c21 (configuration not stated) | – | – | – |
| Not Active | inactive | Not Active | – | 51 | – | – | Cc1noc(NS(=O)(=O)c2ccc(-n3ccc4c(c3=O)C(=O)OC4(C)C)cc2)c1C | – | – | – |
| – | inactive | Not Active | – | – | Not Active | – | NC(=S)Nn1ccc2c(c1=O)C(=O)OC21CCCCC1 | 23.8 | – | – |
| Not Active | inactive | Not Active | 4.1 | – | – | – | CCN(CC)CC(O)Cn1ccc2c(c1=O)C(=O)OC21CCOC(C)(C)C1 (configuration not stated) | – | – | – |
| Not Active | inactive | Not Active | 6.6 | – | – | – | NS(=O)(=O)c1ccc(-n2ccc3c(c2=O)C(=O)OC32CCCCC2)cc1 | – | – | – |
| Not Active | inactive | Not Active | – | 64 | – | – | CC1(C)OC(=O)c2c1ccn(-c1ccc(S(=O)(=O)Nc3ccccn3)cc1)c2=O | – | – | – |
| Not Active | inactive | Not Active | 6.1 | – | – | – | CC1(C)OC(=O)c2c1ccn(-c1ccc(S(N)(=O)=O)cc1)c2=O | – | – | – |
| Not Active | inactive | Not Active | 56.4 | – | – | – | CC1(c2ccccc2)OC(=O)c2c1ccn(CCCN1CCOCC1)c2=O (racemic) | – | – | – |
| Not Active | inactive | Not Active | 19.6 | – | – | – | CC1(CCc2ccccc2)OC(=O)c2c1ccn(CCCN1CCOCC1)c2=O (racemic) | – | – | – |
| Not Active | inactive | Not Active | 2.5 | – | – | – | CCN(CC)CC(O)Cn1ccc2c(c1=O)C(=O)OC2(C)CCc1ccccc1 (mixture of isomers) | – | – | – |
| – | inactive | Not Active | 7 | – | – | 29.6 | CC1(Cc2ccccc2)OC(=O)c2c1ccn(CCc1ccc(Cl)cc1)c2=O (racemic) | – | 22.5 | – |
| Not Active | inactive | Not Active | 54.7 | – | – | – | CC1(C)CC2(CCO1)OC(=O)c1c2ccn(CCCN2CCOCC2)c1=O (configuration not stated) | – | – | – |
| Not Active | inactive | Not Active | 2.8 | – | – | – | CC1(CCc2ccccc2)OC(=O)c2c1ccn(-c1ccc(S(N)(=O)=O)cc1)c2=O (racemic) | – | – | – |
| Not Active | inactive | Not Active | 3.6 | – | – | – | CC1(Cc2ccccc2)OC(=O)c2c1ccn(-c1ccc(S(N)(=O)=O)cc1)c2=O (racemic) | – | – | – |
| Not Active | inactive | Not Active | 4.6 | – | – | – | CC(C)CC1(C)OC(=O)c2c1ccn(-c1ccc(S(N)(=O)=O)cc1)c2=O (racemic) | – | – | – |
| Not Active | inactive | Not Active | – | 28 | – | – | CC1(C)OC(=O)c2c1ccn(-c1ccc(S(=O)(=O)Nc3ccnn3-c3ccccc3)cc1)c2=O | – | – | – |

| SMILES | IC50 [1] | inhibition [2] | IC50 [3] | IC50 ([4]; read-out: IC50) [µM] | inhibition (Oryctolagus cuniculus [5]) [%] | IC50 [4] | IC50 [7] [µM] | inhibition (Oryctolagus cuniculus [6]) [%] | IC50 ([1]; read-out: IC50) [µM] | IC50 ([3]; read-out: IC50) [µM] |
| --- | --- | --- | --- | --- | --- | --- | --- | --- | --- | --- |
| C[C@@]12OC(=O)[C@]1([C@@H](O)[C@@H]1C=CCCC1)NC(=O)[C@@H]2CCCl [MARIZOMIB] | – | – | – | 0.46 | – | – | – | – | 0.0026 | 0.021 |
